# According to US20030134859A1 (SANKYO COMPANY, LIMITED, priority 2000, published 2003):
# Structures can show the parent of a compound that is named as a salt.
# Biological target: T1, human PPAR γ 2 (Homo sapiens, UniProt P37231)
# T1 construct: expressed in transfected cells; host or cells: human osteosarcoma MG63, transiently co-transfected with pSG5-hPPARg and the reporter pGV-P2-PPRE
# T1 sequence (P37231 1-505): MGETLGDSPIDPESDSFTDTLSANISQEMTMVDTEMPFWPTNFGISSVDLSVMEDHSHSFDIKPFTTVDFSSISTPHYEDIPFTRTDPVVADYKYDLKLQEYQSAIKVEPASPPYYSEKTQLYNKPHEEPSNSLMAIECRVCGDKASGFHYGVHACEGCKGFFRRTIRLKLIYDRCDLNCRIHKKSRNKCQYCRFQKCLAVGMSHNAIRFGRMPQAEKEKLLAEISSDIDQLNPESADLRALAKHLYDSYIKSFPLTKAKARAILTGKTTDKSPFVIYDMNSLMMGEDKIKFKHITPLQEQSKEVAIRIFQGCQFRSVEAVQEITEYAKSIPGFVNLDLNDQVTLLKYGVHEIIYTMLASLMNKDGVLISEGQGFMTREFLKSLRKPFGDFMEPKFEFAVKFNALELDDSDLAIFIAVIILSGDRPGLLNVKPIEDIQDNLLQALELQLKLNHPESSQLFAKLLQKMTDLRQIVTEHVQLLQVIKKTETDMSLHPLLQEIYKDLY
# Test: Inhibitory activity against PPAR γ transcription in the presence of agonist compound A, luciferase reporter
# Assay type: cell-based
# Conditions: in the presence of 10 nM compound A (agonist); MG63 cells transfected with pSG5-hPPARg and pGV-P2-PPRE; 24 hr
row,Structure (SMILES),IC50 [nM]
1,"Cc1ccc2nc(-c3ccc(NC(=O)c4cc([N+](=O)[O-])ccc4Cl)cc3)sc2c1 [Example 10, N-[4-(6-Methylbenzothiazol-2-yl)phenyl]-(2-chloro-5-nitrophenyl)carboxamide]",71
2,"N#Cc1ccc(NC(=O)c2cc([N+](=O)[O-])ccc2Cl)cc1 [Example 20, N-(4-Cyanophenyl)-(2-chloro-5-nitrophenyl)carboxamide]",15
3,"Cc1cccc(-c2csc(NC(=O)c3cc([N+](=O)[O-])ccc3Cl)n2)c1 [Example 40, N-[4-(3-Methylphenyl)thiazol-2-yl)-(2-chloro-5-nitrophenyl)carboxamide]",57
4,"CCc1ccc(-c2csc(NC(=O)c3cc([N+](=O)[O-])ccc3Cl)n2)cc1 [Example 44, N-[4-(4-Ethylphenyl)thiazol-2-yl]-(2-chloro-5-nitrophenyl)carboxamide]",84
5,"O=C(Nc1cccnc1)c1cc([N+](=O)[O-])ccc1Cl [Example 50, N-(3-Pyridyl)-(2-chloro-5-nitrophenyl)carboxamide]",110
6,"Cc1ccnc(NC(=O)c2cc([N+](=O)[O-])ccc2Cl)n1 [Example 65, N-(4-Methylpyrimidin-2-yl)-(2-chloro-5-nitrophenyl)carboxamide]",37
7,"Cc1cc(Cl)nc(NC(=O)c2cc([N+](=O)[O-])ccc2Cl)n1 [Example 78, N-(4-Chloro-6-methylpyrimidin-2-yl)-(2-chloro-5-nitrophenyl)carboxamide]",84
8,"CC(C)(C)OC(=O)Nc1ccc(-c2ccc(NC(=O)c3cc([N+](=O)[O-])ccc3Cl)cc2)cc1 [Example 87, N-[4-[4-(tert-Butoxycarbonylamino)phenyl]phenyl]-(2-chloro-5-nitrophenyl)carboxamide]",33
9,"CCCCCCNc1ccc(-c2ccc(NC(=O)c3cc([N+](=O)[O-])ccc3Cl)cc2)cc1 [Example 195, N-[4-[4-(N-Hexylamino)phenyl]phenyl]-(2-chloro-5-nitrophenyl)carboxamide]",18
10,"CCCCCCN(C)c1ccc(-c2ccc(NC(=O)c3cc([N+](=O)[O-])ccc3Cl)cc2)cc1 [Example 196, N-[4-[4-(N-Hexyl-N-methylamino)phenyl]phenyl]-(2-chloro-5-nitrophenyl)carboxamide]",990
11,"CCCCCCN(CC)c1ccc(-c2ccc(NC(=O)c3cc([N+](=O)[O-])ccc3Cl)cc2)cc1 [Example 197, N-[4-[4-(N-Ethyl-N-hexylamino)phenyl]phenyl]-(2-chloro-5-nitrophenyl)carboxamide]",280
12,"CCCCCCCCNc1ccc(-c2ccc(NC(=O)c3cc([N+](=O)[O-])ccc3Cl)cc2)cc1 [Example 219, N-[4-[4-(N-Octylamino)phenyl]phenyl]-(2-chloro-5-nitrophenyl)carboxamide]",8.3
13,"CCCCCCCCN(CCCCCC)c1ccc(-c2ccc(NC(=O)c3cc([N+](=O)[O-])ccc3Cl)cc2)cc1 [Example 220, N-[4-[4-(N-Hexyl-N-octylamino)phenyl]phenyl]-(2-chloro-5-nitrophenyl)carboxamide mono-hydrochloride]",18
14,"CCCCCCCCN(CCCC)c1ccc(-c2ccc(NC(=O)c3cc([N+](=O)[O-])ccc3Cl)cc2)cc1 [Example 222, N-[4-[4-(N-Butyl-N-octylamino)phenyl]phenyl]-(2-chloro-5-nitrophenyl)carboxamide]",160
15,"CCCCCCCCN(CCCC)c1ccc(-c2ccc(NC(=O)c3cc([N+](=O)[O-])ccc3Cl)cc2)cc1.Cl [Example 223, N-[4-[4-(N-Butyl-N-octylamino)phenyl]phenyl]-(2-chloro-5-nitrophenyl)carboxamide mono-hydrochloride]",89
16,"CCCCCCCCN(CCC)c1ccc(-c2ccc(NC(=O)c3cc([N+](=O)[O-])ccc3Cl)cc2)cc1 [Example 224, N-[4-[4-(N-Octyl-N-propylamino)phenyl]phenyl]-(2-chloro-5-nitrophenyl)carboxamide]",79
17,"CCCCCCCCN(CC)c1ccc(-c2ccc(NC(=O)c3cc([N+](=O)[O-])ccc3Cl)cc2)cc1 [Example 225, N-[4-[4-(N-Ethyl-N-octylamino)phenyl]phenyl]-(2-chloro-5-nitrophenyl)carboxamide]",190
18,"O=C(Nc1ccc(N2CCN(C(=O)c3ccncc3)CC2)cc1)c1cc([N+](=O)[O-])ccc1Cl [Example 228, N-[4-[4-(Pyridin-4-ylcarbonyl)piperazin-1-yl]phenyl]-(2-chloro-5-nitrophenyl)carboxamide]",130
19,"O=C(Nc1ccc(CCO)cc1)c1cc([N+](=O)[O-])ccc1Cl [Example 230, N-[4-(2-Hydroxyethyl)phenyl]-(2-chloro-5-nitrophenyl)carboxamide]",19
20,"O=C(Nc1ccc(-n2ccnc2)cc1)c1cccc(NC(=O)c2cc([N+](=O)[O-])ccc2Cl)c1 [Example 231, N-[[3-[4-(Imidazol-1-yl)phenyl]aminocarbonyl]phenyl]-(2-chloro-5-nitrophenyl)carboxamide]",60
21,"Nc1nc(-c2cccc(NC(=O)c3cc([N+](=O)[O-])ccc3Cl)c2)cs1 [Example 233, N-[3-(2-Amiothiazol-4-yl)phenyl]-(2-chloro-5-nitrophenyl)carboxamide]",28
22,"CC(C)(C)OC(=O)Nc1cccc(-c2csc(NC(=O)c3cc([N+](=O)[O-])ccc3Cl)n2)c1 [Example 234, N-[4-(3-tert-Butoxycarbonylaminophenyl)thiazol-2-yl]-(2-chloro-5-nitrophenyl)carboxamide]",19
23,"CS(=O)(=O)N(c1ccc(-c2ccc(NC(=O)c3cc([N+](=O)[O-])ccc3Cl)cc2)cc1)S(C)(=O)=O [Example 235, N-[4-[4-(N,N-Dimethanesulfonylamino)phenyl]phenyl]-(2-chloro-5-nitrophenyl)carboxamide]",19
24,"O=C(Nc1ccc(-c2ccc(NC(=S)Nc3ccncc3)cc2)cc1)c1cc([N+](=O)[O-])ccc1Cl [Example 258, N-[4-[4-[(Pyridin-4-yl)aminothiocarbonylamino]phenyl]phenyl]-(2-chloro-5-nitrophenyl)carboxamide]",25
25,"NCCc1ccc(NC(=O)c2cc([N+](=O)[O-])ccc2Cl)cc1 [Example 267, N-[4-(2-Aminoethyl)phenyl]-(2-chloro-5-nitrophenyl)carboxamide]",60
26,"O=C(Nc1ccc(CCNC(=S)Nc2cccnc2)cc1)c1cc([N+](=O)[O-])ccc1Cl [Example 273, N-[4-[2-(Pyridin-3-yl)aminothiocarbonylaminoethyl]phenyl]-(2-chloro-5-nitrophenyl)carboxamide]",13
